Results on 15 molecules are retold here after PubChem BioAssay (NCI).

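Method: 48-hour compound exposure of cells in 96-well plates, five concentrations, linear interpolation of endpoints. GI50: concentration for 50% inhibition of growth. TGI marks complete inhibition of growth.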

Common to all, as to experiment: DTP human tumour cell line panel, 48 h
The test system of assay [1] is SW-620 colon.
The test system of assay [2] is HCT-116 colon.
For assay [3], the system named is MALME-3M melanoma.
In assay [4] the test system is UACC-257 melanoma.
Assay [5] deals with OVCAR-8 ovarian.
Assay [6] concerns HL-60(TB) leukemia.
The subject of assay [7] is EKVX NSCLC.
The test system of assay [8] is U251 CNS.
The test system of assay [9] is A498 renal.
Assay [10] concerns NCI/ADR-RES ovarian.

As a reminder, the TGI is the concentration giving total growth inhibition. Low values mean greater sensitivity of the cells, high ones lower sensitivity of the cells. In the case of `O=c1oc2c3ccc4ccccc4c3n(CCN3CCOCC3)c2c2ccccc12`, the TGI in [1], in [2], in assay [3], in assay [4], in [5] and in assay [6] was above 100 µM each time. Also, the TGI in assay [7] was above 100 µM.

With `COc1ccc(NC(=O)CC/C(CC(=O)c2ccccc2Cl)=N\Nc2nnc(C)n2N)cc1`, the TGI in assay [1], in [2], in assay [3], in [4], in [5] and in assay [6] was above 100 µM in each case. In addition, the TGI in assay [7] and in assay [8] was above 100 µM throughout.

With `COc1ccc2c(c1)CCc1cnn(C3OC(COC(C)=O)C(OC(C)=O)C(OC(C)=O)C3OC(C)=O)c1-2` (configuration not stated), the total growth inhibition concentration (TGI) in assay [1] was 36.2 µM; in assay [2] it was above 100 µM; in assay [4] it was above 100 µM; in assay [5] it was above 100 µM; in [6] it was above 100 µM; in assay [7] it was above 100 µM. Besides, the TGI was 65.6 µM in assay [8] and above 100 µM in [9].

As for `COCC1C(=O)c2cc3c(cc2C12C=CC1(C=C2)OCCO1)OCO3` (configuration not stated), the concentration for total growth inhibition (TGI) turned out to be 8.76 µM in [1]; 6.77 µM in assay [2]; 27.4 µM in assay [3]; 32.6 µM in assay [4]; 13.1 µM in [5]; 5.97 µM in assay [6]. Moreover, the TGI in [7] turned out to be 30.4 µM; in [8] it was 14 µM.

Usually GI50 stands for the concentration giving 50% growth inhibition. For `O=C(N/N=C/c1coc2ccc(Cl)cc2c1=O)c1ccncc1`, the GI50 in [1] was above 100 µM; in assay [2] it was 40.3 µM; in [10], 35.5 µM; in [4] it was 56.8 µM; in [5], 35.6 µM; in assay [7], 44.6 µM. The GI50 in assay [8] is 39.7 µM. Also, the TGI in assay [1], in [2], in assay [10], in [4], in assay [5] and in assay [7] was above 100 µM throughout. Also, in [8], the TGI was above 100 µM.

Regarding `CN(C)c1ccc(/C=C/C(=O)c2ccccc2)cc1Br`, the concentration for total growth inhibition (TGI) in assay [1] was 43.8 µM; in assay [3] it was 43 µM; in [4] it was 52.6 µM; in assay [5] it was 57.1 µM; in [7], above 100 µM; in assay [8], 33.6 µM. The TGI in assay [9] was above 100 µM.

Turning to `COc1ccc(C(=O)/C(=N/Nc2ccccc2)c2ccc(OC)cc2)cc1`, the total growth inhibition concentration (TGI) in assay [1], in assay [2], in [3], in assay [4], in [5] and in assay [7] was above 100 µM each time. Further, the TGI in assay [8] is above 100 µM.

Take `COC(=O)NNc1c([N+](=O)[O-])cnn(-c2ccccc2)c1=O`: the TGI in assay [1] came to 2.24 µM; in [2], 3.9 µM; in assay [3], 5.51 µM; in [4], 6.33 µM; in assay [5], 3.75 µM; in assay [6] it was 3.06 µM. The TGI came to 9.75 µM in [7], 4.59 µM in assay [8] and 78.2 µM in [9].

As for `Cc1cc2c(cc1C)N1Cc3c(ccc(C)c3C)N(C2)C1` (tested in a mixture with another compound), the TGI in assay [1], in assay [2], in assay [5], in assay [6], in assay [7] and in assay [8] was above 100 µM in each case.

Regarding `O=C1C(c2ccc([N+](=O)[O-])cc2)=[N+]([O-])c2ccccc21`, the TGI in assay [1] is above 100 µM; in [2] it was 64.3 µM; in assay [3], above 100 µM; in assay [5], 16.4 µM; in [6], 71.9 µM; in assay [7], above 100 µM. In [8], the TGI is 36.3 µM.

Take `O=c1cc2n(c(=O)[nH]1)C1OC(C(O)C1O)[C@H]2CCO` (some centres not stated): the TGI in assay [1], in assay [3], in [4], in assay [5], in assay [6] and in assay [7] was above 100 µM throughout. The TGI in [8] and in [9] was above 100 µM in each case.

With `CCOc1cc(C=O)c2c(ccc3ccc(OC)c(OC)c32)c1OC`, the TGI was above 100 µM in assay [2]; above 100 µM in [3]; 81.5 µM in assay [10]; above 100 µM in assay [4]; above 100 µM in assay [5]; above 100 µM in assay [6]. In addition, the TGI in assay [7] and in assay [8] was above 100 µM each time.

As to `O=c1c2cc(Br)ccc2[nH]c(=S)n1-c1ccc(Br)cc1`, the TGI in [1], in assay [2], in [3], in assay [4], in assay [5] and in assay [6] was above 100 µM each time. The TGI in assay [7], in [8] and in [9] was above 100 µM each time.

Turning to `O=C(CC1(O)C(=O)Nc2c(Cl)cccc21)c1ccccc1` (configuration not stated), the TGI in [1], in assay [3], in [4], in assay [5], in assay [6] and in [7] was above 100 µM in each case. In assay [8], the TGI was above 100 µM.

Turning to `C=CCCC(O)c1ccc(C(O)CCCCCCCCCCCC)o1` (configuration not stated), the GI50 in [1] is 17.9 µM; in assay [2], 14.8 µM; in assay [10] it was 20.9 µM; in assay [4], 19.2 µM; in assay [5], 13.5 µM; in [7] it was 23.9 µM. In addition, the GI50 in assay [8] was 17.5 µM. The concentration for total growth inhibition (TGI) in assay [1] came to 37.9 µM; in assay [2], 28.6 µM; in [10] it was 45.8 µM; in [4], 40.1 µM; in assay [5], 30.3 µM; in [7] it was 50.4 µM. This molecule also returned a TGI in [8] of 31.9 µM.
